Patent publication US20120316199A1, “COMPOSITIONS AND METHODS FOR TREATING, CONTROLLING, REDUCING, OR AMELIORATING INFLAMMATORY PAIN” (priority 2011, published 2012)

System: intraocular pressure (IOP)
Experiment: Intraocular pressure in New Zealand White rabbits, topical dosing four times daily
Assay type: in vivo
Details: untreated left eyes
Experimental: On Days 1-31, animals received daily topical doses of the appropriate test article into the right eye. Animals were dosed four times per day, with doses administered 2 hours apart. Doses were administered using a calibrated 50-μL pipette. The eyelids were held close for 10 seconds immediately following dosing. The time of each dose administration was recorded.
Intraocular pressure (“IOP”) was determined for both eyes of each animal on Days 3, 5, 10, 12, 16, 18, 22, 24, 26, 30, and 32. IOP was evaluated with a Medtronic Solan, Model 30 classic pneumatonometer. Proparacaine hydrochloride 0.5% (1 drop) was delivered to each eye prior to IOP measurement. IOP was measured on Monday. Wednesday, and Friday of each week. A two-point diurnal curve was established: IOP was recorded at 8 a.m. and 12 p.m. on Day 3, and at 8 a.m. and 2 p.m. on later days, with a ±1 hour range for each of these times. The time of the measurements was recorded.
Descriptive statistics were prepared for IOP data of each treatment group (left and right eyes separately) at each measurement interval. The statistics included the number of observations (“N”) mean, standard deviation (“STD”), and standard error (“SEM”). Statistical analyses were conducted on IOP results using Statistical Analysis Systems (SAS Institute. Inc., Cary, N.C. V8.0). Parameters were evaluated using analysis of variance/GLM Procedure followed by Tukey's Standardized Range Test (Tukey, 1985) for post hoc comparisons of group means. The level of significance was set at a probability of p<0.05 for all statistical procedures. Group IOP means were compared at each interval, with left and right eyes compared separately.

## Cc1ccc2c(NC[C@](O)(CC(C)(C)c3cc(F)cc4c3OCC4)C(F)(F)F)cccc2n1 [BOL-303242-X, mapracorat]
A.M. readings, Day 16, 1 mg/g (Group D)
  Intraocular Pressure, MEAN: 21.6 mmHg
A.M. readings, Day 16, 5 mg/g (Group C)
  Intraocular Pressure, MEAN: 23.4 mmHg
A.M. readings, Day 16, 10 mg/g (Group B)
  Intraocular Pressure, MEAN: 22.9 mmHg
A.M. readings, Day 18, 1 mg/g (Group D)
  Intraocular Pressure, MEAN: 23.3 mmHg
A.M. readings, Day 18, 5 mg/g (Group C)
  Intraocular Pressure, MEAN: 21.9 mmHg
A.M. readings, Day 18, 10 mg/g (Group B)
  Intraocular Pressure, MEAN: 21.2 mmHg
A.M. readings, Day 22, 1 mg/g (Group D)
  Intraocular Pressure, MEAN: 22.4 mmHg
A.M. readings, Day 22, 5 mg/g (Group C)
  Intraocular Pressure, MEAN: 21.6 mmHg
A.M. readings, Day 22, 10 mg/g (Group B)
  Intraocular Pressure, MEAN: 21.8 mmHg
A.M. readings, Day 24, 1 mg/g (Group D)
  Intraocular Pressure, MEAN: 22.4 mmHg
A.M. readings, Day 24, 5 mg/g (Group C)
  Intraocular Pressure, MEAN: 22.1 mmHg
A.M. readings, Day 24, 10 mg/g (Group B)
  Intraocular Pressure, MEAN: 20.2 mmHg
A.M. readings, Day 26, 1 mg/g (Group D)
  Intraocular Pressure, MEAN: 22.9 mmHg
A.M. readings, Day 26, 5 mg/g (Group C)
  Intraocular Pressure, MEAN: 21.7 mmHg
A.M. readings, Day 26, 10 mg/g (Group B)
  Intraocular Pressure, MEAN: 21.7 mmHg
A.M. readings, Day 30, 1 mg/g (Group D)
  Intraocular Pressure, MEAN: 23.4 mmHg
A.M. readings, Day 30, 5 mg/g (Group C)
  Intraocular Pressure, MEAN: 22.6 mmHg
A.M. readings, Day 30, 10 mg/g (Group B)
  Intraocular Pressure, MEAN: 22.7 mmHg
A.M. readings, Day 32, 1 mg/g (Group D)
  Intraocular Pressure, MEAN: 24.1 mmHg
A.M. readings, Day 32, 5 mg/g (Group C)
  Intraocular Pressure, MEAN: 23.1 mmHg
A.M. readings, Day 32, 10 mg/g (Group B)
  Intraocular Pressure, MEAN: 22.9 mmHg
A.M. readings, Pre-Study, 1 mg/g (Group D)
  Intraocular Pressure, MEAN: 23.9 mmHg
A.M. readings, Pre-Study, 5 mg/g (Group C)
  Intraocular Pressure, MEAN: 24.2 mmHg
A.M. readings, Pre-Study, 10 mg/g (Group B)
  Intraocular Pressure, MEAN: 23.8 mmHg
P.M. readings, Day 3, 1 mg/g (Group D)
  Intraocular Pressure, MEAN: 25.0 mmHg
P.M. readings, Day 3, 5 mg/g (Group C)
  Intraocular Pressure, MEAN: 23.9 mmHg
P.M. readings, Day 3, 10 mg/g (Group B)
  Intraocular Pressure, MEAN: 23.3 mmHg
P.M. readings, Day 5, 1 mg/g (Group D)
  Intraocular Pressure, MEAN: 24.7 mmHg
P.M. readings, Day 5, 5 mg/g (Group C)
  Intraocular Pressure, MEAN: 24.8 mmHg
P.M. readings, Day 5, 10 mg/g (Group B)
  Intraocular Pressure, MEAN: 25.2 mmHg
P.M. readings, Day 10, 1 mg/g (Group D)
  Intraocular Pressure, MEAN: 24.9 mmHg
P.M. readings, Day 10, 5 mg/g (Group C)
  Intraocular Pressure, MEAN: 24.6 mmHg
P.M. readings, Day 10, 10 mg/g (Group B)
  Intraocular Pressure, MEAN: 23.5 mmHg
P.M. readings, Day 12, 1 mg/g (Group D)
  Intraocular Pressure, MEAN: 23.7 mmHg
P.M. readings, Day 12, 5 mg/g (Group C)
  Intraocular Pressure, MEAN: 23.3 mmHg
P.M. readings, Day 12, 10 mg/g (Group B)
  Intraocular Pressure, MEAN: 24.1 mmHg
P.M. readings, Day 16, 1 mg/g (Group D)
  Intraocular Pressure, MEAN: 21.9 mmHg
P.M. readings, Day 16, 5 mg/g (Group C)
  Intraocular Pressure, MEAN: 20.4 mmHg
P.M. readings, Day 16, 10 mg/g (Group B)
  Intraocular Pressure, MEAN: 21.4 mmHg
P.M. readings, Day 18, 1 mg/g (Group D)
  Intraocular Pressure, MEAN: 22.7 mmHg
P.M. readings, Day 18, 5 mg/g (Group C)
  Intraocular Pressure, MEAN: 21.9 mmHg
P.M. readings, Day 18, 10 mg/g (Group B)
  Intraocular Pressure, MEAN: 22.1 mmHg
P.M. readings, Day 22, 1 mg/g (Group D)
  Intraocular Pressure, MEAN: 22.1 mmHg
P.M. readings, Day 22, 5 mg/g (Group C)
  Intraocular Pressure, MEAN: 22.1 mmHg
P.M. readings, Day 22, 10 mg/g (Group B)
  Intraocular Pressure, MEAN: 22.6 mmHg
P.M. readings, Day 24, 1 mg/g (Group D)
  Intraocular Pressure, MEAN: 22.9 mmHg
P.M. readings, Day 24, 5 mg/g (Group C)
  Intraocular Pressure, MEAN: 22.2 mmHg
P.M. readings, Day 24, 10 mg/g (Group B)
  Intraocular Pressure, MEAN: 22.8 mmHg
P.M. readings, Day 26, 1 mg/g (Group D)
  Intraocular Pressure, MEAN: 22.1 mmHg
P.M. readings, Day 26, 5 mg/g (Group C)
  Intraocular Pressure, MEAN: 22.3 mmHg
P.M. readings, Day 26, 10 mg/g (Group B)
  Intraocular Pressure, MEAN: 21.4 mmHg
P.M. readings, Day 30, 10 mg/g (Group B)
  Intraocular Pressure, MEAN: 21.7 mmHg
